The results in this text go back to ChEMBL document CHEMBL2429819, “Synthesis, antibacterial screening, and POM analyses of novel bis-isoxazolyl/pyrazolyl-1,3-diols” (2013).

Holding throughout (type): functional
Holding throughout (conditions): for zone of inhibition at 100 µg/mL: read-out: DIZ

Experiment [1] concerns Proteus vulgaris. Kind of experiment: Antibacterial activity against Proteus vulgaris at 100 ug/ml after 24 hrs.
Experiment [2] has as its system Bacillus subtilis. The experiment is described as follows: Antibacterial activity against Bacillus subtilis at 100 ug/ml after 24 hrs.
Experiment [3] has as its system Muscodor albus. Kind of experiment: Antibacterial activity against Muscodor albus at 100 ug/ml after 24 hrs.
Experiment [4] relates to Escherichia coli. Kind of experiment: Antibacterial activity against Escherichia coli at 100 ug/ml after 24 hrs.

Activity calls are given as the source filed them. No cut-off for these calls is given here.

Turning to `Oc1cc(O)c(-c2cc(-c3cccnc3)[nH]n2)cc1-c1cc(-c2cccnc2)[nH]n1`, the zone of inhibition at 100 µg/mL in experiment [1] worked out at 15.4 mm; in experiment [2] it was 14.2 mm; in experiment [3], 15.3 mm; in experiment [4], 15.2 mm.

For `COc1ccc(-c2cc(-c3cc(-c4cc(-c5ccc(OC)cc5)on4)c(O)cc3O)no2)cc1`, the zone of inhibition at 100 µg/mL in experiment [1] was 15.4 mm; in experiment [2], 16.5 mm; in experiment [3], 15.9 mm; in experiment [4], 14.3 mm.

`Oc1cc(O)c(-c2cc(-c3ccccc3)on2)cc1-c1cc(-c2ccccc2)on1`: the zone of inhibition at 100 µg/mL was 15.2 mm in experiment [1], 11.2 mm in experiment [2] and 17 mm in experiment [4]. In addition, in experiment [3], the “diameter of the inhibition zone (DIZ)” value is “inactive”.

As to `Oc1cc(O)c(-c2cc(-c3ccc(Cl)cc3)on2)cc1-c1cc(-c2ccc(Cl)cc2)on1`, the zone of inhibition at 100 µg/mL in experiment [1] was 13.2 mm; in experiment [2], 13.7 mm; in experiment [3] it was 15 mm; in experiment [4], 12.7 mm.

On to `O=C(CC(=O)c1cc(C(=O)CC(=O)c2ccc(Cl)cc2)c(O)cc1O)c1ccc(Cl)cc1`, for which the zone of inhibition at 100 µg/mL worked out at 11 mm in experiment [1], 13.2 mm in experiment [2] and 15 mm in experiment [3]. The “diameter of the inhibition zone (DIZ)” value in experiment [4] was “inactive”.

As to `Oc1cc(O)c(-c2cc(-c3cccnc3)on2)cc1-c1cc(-c2cccnc2)on1`, the zone of inhibition at 100 µg/mL in experiment [1] came out at 11.9 mm; in experiment [2] it was 15.8 mm; in experiment [3], 16.1 mm; in experiment [4], 12.4 mm.

Take `NC[C@@H]1O[C@H](O[C@H]2[C@@H](O)[C@H](O[C@@H]3[C@@H](O)[C@H](N)C[C@H](N)[C@H]3O[C@H]3O[C@H](CN)[C@@H](O)[C@H](O)[C@H]3N)O[C@@H]2CO)[C@H](N)[C@@H](O)[C@@H]1O` [FRAMYCETIN]: the zone of inhibition at 100 µg/mL in experiment [1] came out at 25.3 mm; in experiment [2] it was 26.1 mm; in experiment [3], 25.8 mm; in experiment [4] it was 26.1 mm.

With `COc1ccc(-c2cc(-c3cc(-c4cc(-c5ccc(OC)cc5)[nH]n4)c(O)cc3O)n[nH]2)cc1`, the “diameter of the inhibition zone (DIZ)” value in experiment [1] is “inactive”. In addition, the results for the zone of inhibition at 100 µg/mL in experiment [2], in experiment [3] and in experiment [4] were 15.5 mm, 14.4 mm and 12.1 mm, respectively.

Consider `Cc1ccc(C(=O)CC(=O)c2cc(C(=O)CC(=O)c3ccc(C)cc3)c(O)cc2O)cc1`, for which the zone of inhibition at 100 µg/mL in experiment [1] amounted to 12.6 mm; in experiment [2], 16.2 mm; in experiment [3], 13.1 mm; in experiment [4], 13.8 mm.

In the case of `Oc1cc(O)c(-c2cc(-c3cccs3)[nH]n2)cc1-c1cc(-c2cccs2)[nH]n1`, the zone of inhibition at 100 µg/mL in experiment [1] is 15.3 mm; in experiment [3] it was 11.7 mm; in experiment [4], 15.4 mm. Further, in experiment [2], the “diameter of the inhibition zone (DIZ)” value is “inactive”.

Turning to `CC[C@H]1OC(=O)[C@H](C)[C@@H](O[C@H]2C[C@@](C)(OC)[C@@H](O)[C@H](C)O2)[C@H](C)[C@@H](O[C@@H]2O[C@H](C)C[C@H](N(C)C)[C@H]2O)[C@](C)(O)C[C@@H](C)C(=O)[C@H](C)[C@@H](O)[C@]1(C)O` [ERYTHROMYCIN], the zone of inhibition at 100 µg/mL in experiment [1] worked out at 25.1 mm; in experiment [2] it was 27.1 mm; in experiment [3], 26.1 mm; in experiment [4], 27.4 mm.

`O=C(CC(=O)c1cc(C(=O)CC(=O)c2ccccc2)c(O)cc1O)c1ccccc1`: the zone of inhibition at 100 µg/mL in experiment [1] was determined as 13.3 mm; in experiment [2], 15.8 mm; in experiment [3], 15.2 mm; in experiment [4], 12.4 mm.

As to `O=C(CC(=O)c1cc(C(=O)CC(=O)c2cccnc2)c(O)cc1O)c1cccnc1`, the zone of inhibition at 100 µg/mL in experiment [1] is 14.2 mm; in experiment [2], 11.9 mm; in experiment [3], 15.7 mm; in experiment [4] it was 16.4 mm.

Turning to `Oc1cc(O)c(-c2cc(-c3cccs3)on2)cc1-c1cc(-c2cccs2)on1`, the “diameter of the inhibition zone (DIZ)” value in experiment [1] was “inactive”. Also, the zone of inhibition at 100 µg/mL in experiment [2] was 13.2 mm; in experiment [3], 16 mm; in experiment [4] it was 12.5 mm.

Take `Cc1ccc(-c2cc(-c3cc(-c4cc(-c5ccc(C)cc5)[nH]n4)c(O)cc3O)n[nH]2)cc1`: the values for the zone of inhibition at 100 µg/mL in experiment [1], in experiment [2] and in experiment [4] were 15.7 mm, 12.4 mm and 14.7 mm, respectively. Also, in experiment [3], the “diameter of the inhibition zone (DIZ)” value was “inactive”.

In the case of `Cc1ccc(-c2cc(-c3cc(-c4cc(-c5ccc(C)cc5)on4)c(O)cc3O)no2)cc1`, the zone of inhibition at 100 µg/mL in experiment [1] was found to be 11.4 mm; in experiment [2] it was 12.7 mm; in experiment [3], 14.7 mm. The “diameter of the inhibition zone (DIZ)” value in experiment [4] is “inactive”.

As for `Oc1cc(O)c(-c2cc(-c3ccc(Cl)cc3)[nH]n2)cc1-c1cc(-c2ccc(Cl)cc2)[nH]n1`, the zone of inhibition at 100 µg/mL in experiment [1] worked out at 15.7 mm; in experiment [2], 16.2 mm; in experiment [3], 15.7 mm; in experiment [4], 15 mm.

In the case of `O=C(CC(=O)c1cc(C(=O)CC(=O)c2cccs2)c(O)cc1O)c1cccs1`, the zone of inhibition at 100 µg/mL was 14.9 mm in experiment [1], 15.5 mm in experiment [2], 14.9 mm in experiment [3] and 15.5 mm in experiment [4].

For `COc1ccc(C(=O)CC(=O)c2cc(C(=O)CC(=O)c3ccc(OC)cc3)c(O)cc2O)cc1`, in experiment [1], the “diameter of the inhibition zone (DIZ)” value is “inactive”. Further, the results for the zone of inhibition at 100 µg/mL in experiment [2], in experiment [3] and in experiment [4] were 14.9 mm, 16.1 mm and 11.4 mm, respectively.

In the case of `Oc1cc(O)c(-c2cc(-c3ccccc3)[nH]n2)cc1-c1cc(-c2ccccc2)[nH]n1`, the zone of inhibition at 100 µg/mL worked out at 15.2 mm in experiment [1], 12.2 mm in experiment [2], 14 mm in experiment [3] and 15.2 mm in experiment [4].
